# Laboratory results reported in ChEMBL document CHEMBL1128422 (J Med Chem, 1995).
# pEC50: −log10 of the molar value.
# Species on record: Oryctolagus cuniculus
# Assay: Ability to stimulate contraction of the rabbit iris sphincter smooth muscle using smooth muscle contraction assay
# Type: functional
# Details: Muscle tissue
row,SMILES,pEC50
1,CSCC[C@H](NC(=O)[C@H](CC(C)C)NC(=O)CNC(=O)[C@H](Cc1ccccc1)NC(=O)[C@@H](NC(=O)[C@H](CCC(N)=O)NC(=O)[C@H](CCC(N)=O)NC(=O)[C@@H]1CCCN1C(=O)[C@H](CCCCN)NC(=O)[C@@H]1CCCN1C(=O)[C@@H](N)CCCN=C(N)N)[C@H](C)c1ccccc1)C(N)=O,9.27
2,CSCC[C@H](NC(=O)[C@H](CC(C)C)NC(=O)CNC(=O)[C@@H](NC(=O)[C@@H](NC(=O)[C@H](CCC(N)=O)NC(=O)[C@H](CCC(N)=O)NC(=O)[C@@H]1CCCN1C(=O)[C@H](CCCCN)NC(=O)[C@@H]1CCCN1C(=O)[C@@H](N)CCCN=C(N)N)[C@H](C)c1ccccc1)[C@H](C)c1ccccc1)C(N)=O,8.00
3,CSCC[C@H](NC(=O)[C@H](CC(C)C)NC(=O)CNC(=O)[C@H](Cc1ccccc1)NC(=O)[C@@H](NC(=O)[C@H](CCC(N)=O)NC(=O)[C@H](CCC(N)=O)NC(=O)[C@@H]1CCCN1C(=O)[C@H](CCCCN)NC(=O)[C@@H]1CCCN1C(=O)[C@@H](N)CCCN=C(N)N)[C@@H](C)c1ccccc1)C(N)=O,9.23
4,CSCC[C@H](NC(=O)[C@H](CC(C)C)NC(=O)CNC(=O)[C@@H](NC(=O)[C@H](Cc1ccccc1)NC(=O)[C@H](CCC(N)=O)NC(=O)[C@H](CCC(N)=O)NC(=O)[C@@H]1CCCN1C(=O)[C@H](CCCCN)NC(=O)[C@@H]1CCCN1C(=O)[C@@H](N)CCCN=C(N)N)[C@H](C)c1ccccc1)C(N)=O,8.24
5,CSCC[C@H](NC(=O)[C@H](CC(C)C)NC(=O)CNC(=O)[C@@H](NC(=O)[C@@H](NC(=O)[C@H](CCC(N)=O)NC(=O)[C@H](CCC(N)=O)NC(=O)[C@@H]1CCCN1C(=O)[C@H](CCCCN)NC(=O)[C@@H]1CCCN1C(=O)[C@@H](N)CCCN=C(N)N)[C@@H](C)c1ccccc1)[C@H](C)c1ccccc1)C(N)=O,9.24

# Compounds with a higher pEC50, results first:
row,pEC50,SMILES
1,9.55,CSCC[C@H](NC(=O)[C@H](CC(C)C)NC(=O)CNC(=O)[C@@H](NC(=O)[C@@H](NC(=O)[C@H](CCC(N)=O)NC(=O)[C@H](CCC(N)=O)NC(=O)[C@@H]1CCCN1C(=O)[C@H](CCCCN)NC(=O)[C@@H]1CCCN1C(=O)[C@@H](N)CCCN=C(N)N)[C@H](C)c1ccccc1)[C@@H](C)c1ccccc1)C(N)=O
2,9.74,CSCC[C@H](NC(=O)[C@H](CC(C)C)NC(=O)CNC(=O)[C@@H](NC(=O)[C@@H](NC(=O)[C@H](CCC(N)=O)NC(=O)[C@H](CCC(N)=O)NC(=O)[C@@H]1CCCN1C(=O)[C@H](CCCCN)NC(=O)[C@@H]1CCCN1C(=O)[C@@H](N)CCCN=C(N)N)[C@@H](C)c1ccccc1)[C@@H](C)c1ccccc1)C(N)=O
3,9.89,CSCC[C@H](NC(=O)[C@H](CC(C)C)NC(=O)CNC(=O)[C@@H](NC(=O)[C@H](Cc1ccccc1)NC(=O)[C@H](CCC(N)=O)NC(=O)[C@H](CCC(N)=O)NC(=O)[C@@H]1CCCN1C(=O)[C@H](CCCCN)NC(=O)[C@@H]1CCCN1C(=O)[C@@H](N)CCCN=C(N)N)[C@@H](C)c1ccccc1)C(N)=O
